Several values for one entry are separate records, joined by “and”; a condition that tells them apart may be missing. Equal values may be shown once. Inconclusive results and toxic doses are left out.
Tested on: L1210 leukemia ip in BDF1 mice, survival T/C
Assay: NCI In Vivo Anticancer Drug Screen. Data for tumor model L1210 Leukemia (intraperitoneal) in B6D2F1 (BDF1) mice
Details: endpoint: mean survival time, higher = longer survival
Method in brief: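 Each compound was tested against a transplantable tumor grown in mice. The endpoint was survival, with treated animals benchmarked against vehicle controls as a simple ratio.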

[1] = dose: 12.5 mg/kg/injection, schedule: Q04DX003 (ip), vehicle: Klucel (hydroxypropylcellulose) (HPC)
[2] = dose: 25.0 mg/kg/injection, schedule: Q04DX003 (ip), vehicle: Klucel (hydroxypropylcellulose) (HPC)

Nc1cc(C(=O)Nc2ccc(C3=NCCN3)cc2)ccc1C(=O)Nc1ccc(C2=NCCN2)cc1
T/C (dose: 0.49 mg/kg/injection, schedule: Q01DX Z (ip), vehicle: saline): 107 % of control | T/C (dose: 0.73 mg/kg/injection, schedule: Q01DX Z (ip), vehicle: saline): 117 % of control | T/C (dose: 2.5 mg/kg/injection, schedule: Q01DX Z (ip), vehicle: methylcellulose (MC)): 103 % of control | T/C (dose: 2.7 mg/kg/injection, schedule: Q01DX Z (ip), vehicle: carboxymethylcellulose (CMC)): 153 % of control | T/C (dose: 4.0 mg/kg/injection, schedule: Q01DX Z (ip), vehicle: carboxymethylcellulose (CMC)): 162 % of control | T/C (dose: 4.0 mg/kg/injection, schedule: Q01DX Z (ip), vehicle: methylcellulose (MC)): 156 % of control | T/C (dose: 4.4 mg/kg/injection, schedule: Q01DX015 (ip), vehicle: carboxymethylcellulose (CMC)): 259 % of control | T/C (dose: 6.0 mg/kg/injection, schedule: Q01DX Z (ip), vehicle: carboxymethylcellulose (CMC)): 212 % of control | T/C (dose: 6.0 mg/kg/injection, schedule: Q01DX Z (ip), vehicle: methylcellulose (MC)): 250 % of control | T/C (dose: 6.6 mg/kg/injection, schedule: Q01DX015 (ip), vehicle: carboxymethylcellulose (CMC)): 329 % of control | T/C (dose: 9.0 mg/kg/injection, schedule: Q01DX Z (ip), vehicle: carboxymethylcellulose (CMC)): 247 % of control | T/C (dose: 9.0 mg/kg/injection, schedule: Q01DX Z (ip), vehicle: methylcellulose (MC)): 200 % of control and 346 % of control | T/C (dose: 10.0 mg/kg/injection, schedule: Q01DX015 (ip), vehicle: carboxymethylcellulose (CMC)): 303 % of control | T/C (dose: 14.0 mg/kg/injection, schedule: Q01DX Z (ip), vehicle: carboxymethylcellulose (CMC)): 345 % of control | T/C (dose: 14.0 mg/kg/injection, schedule: Q01DX Z (ip), vehicle: methylcellulose (MC)): 226 % of control and 329 % of control | T/C (dose: 15.0 mg/kg/injection, schedule: Q01DX015 (ip), vehicle: carboxymethylcellulose (CMC)): 333 % of control | T/C (dose: 15.0 mg/kg/injection, schedule: Q01DX Z (oral), vehicle: carboxymethylcellulose (CMC)): 96 % of control | T/C (dose: 20.0 mg/kg/injection, schedule: Q01DX Z (ip), vehicle: carboxymethylcellulose (CMC)): 154 % of control and 279 % of control | T/C (dose: 20.0 mg/kg/injection, schedule: Q01DX Z (ip), vehicle: methylcellulose (MC)): 94 % of control | T/C (dose: 30.0 mg/kg/injection, schedule: Q01DX Z (ip), vehicle: carboxymethylcellulose (CMC)): 152 % of control | T/C (dose: 30.0 mg/kg/injection, schedule: Q01DX Z (oral), vehicle: carboxymethylcellulose (CMC)): 93 % of control | T/C (dose: 45.0 mg/kg/injection, schedule: Q01DX Z (ip), vehicle: carboxymethylcellulose (CMC)): 101 % of control | T/C (dose: 47.0 mg/kg/injection, schedule: Q01DX Z (ip), vehicle: methylcellulose (MC)): 86 % of control | T/C (dose: 60.0 mg/kg/injection, schedule: Q01DX Z (oral), vehicle: carboxymethylcellulose (CMC)): 93 % of control | T/C (dose: 120.0 mg/kg/injection, schedule: Q01DX Z (oral), vehicle: carboxymethylcellulose (CMC)): 117 % of control | T/C (dose: 240.0 mg/kg/injection, schedule: Q01DX Z (oral), vehicle: carboxymethylcellulose (CMC)): 100 % of control | T/C (dose: 480.0 mg/kg/injection, schedule: Q01DX Z (oral), vehicle: carboxymethylcellulose (CMC)): 94 % of control | T/C (dose: 960.0 mg/kg/injection, schedule: Q01DX Z (oral), vehicle: carboxymethylcellulose (CMC)): 107 % of control

COC1=C(Nc2ccccc2C)C(=O)C(OC)=C(Nc2ccccc2C)C1=O
T/C (dose: 50.0 mg/kg/injection, schedule: Q01DX001 (ip), vehicle: carboxymethylcellulose (CMC)): 87 % of control | T/C (dose: 100.0 mg/kg/injection, schedule: Q01DX001 (ip), vehicle: carboxymethylcellulose (CMC)): 96 % of control | T/C (dose: 200.0 mg/kg/injection, schedule: Q01DX001 (ip), vehicle: carboxymethylcellulose (CMC)): 98 % of control | T/C (dose: 400.0 mg/kg/injection, schedule: Q01DX001 (ip), vehicle: carboxymethylcellulose (CMC)): 96 % of control

COc1ccc(CC(=O)O)c(OC)c1
T/C (dose: 100.0 mg/kg/injection, schedule: Q01DX007 (ip), vehicle: saline with Tween-80): 98 % of control | T/C (dose: 100.0 mg/kg/injection, schedule: Q04DX003 (ip), vehicle: saline): 94 % of control | T/C (dose: 200.0 mg/kg/injection, schedule: Q01DX007 (ip), vehicle: saline with Tween-80): 95 % of control | T/C (dose: 200.0 mg/kg/injection, schedule: Q04DX003 (ip), vehicle: saline): 99 % of control | T/C (dose: 400.0 mg/kg/injection, schedule: Q04DX003 (ip), vehicle: saline): 94 % of control

CNc1ccc(Nc2cc(S(=O)(=O)O)c(N)c3c2C(=O)c2ccccc2C3=O)cc1
T/C (dose: 100.0 mg/kg/injection, schedule: Q01DX001 (ip), vehicle: saline): 110 % of control | T/C (dose: 200.0 mg/kg/injection, schedule: Q01DX001 (ip), vehicle: saline): 98 % of control | T/C (dose: 400.0 mg/kg/injection, schedule: Q01DX001 (ip), vehicle: saline): 93 % of control

O=C1C=CC(=O)N1
T/C (dose: 0.62 mg/kg/injection, schedule: Q01DX009 (ip), vehicle: saline): 90 % of control | T/C (dose: 1.25 mg/kg/injection, schedule: Q01DX009 (ip), vehicle: saline): 93 % of control | T/C (dose: 1.25 mg/kg/injection, schedule: Q04DX003 (ip), vehicle: saline): 92 % of control | T/C (dose: 2.5 mg/kg/injection, schedule: Q01DX009 (ip), vehicle: saline): 90 % of control | T/C (dose: 2.5 mg/kg/injection, schedule: Q04DX003 (ip), vehicle: saline): 96 % of control | T/C (dose: 3.74 mg/kg/injection, schedule: Q01DX009 (ip), vehicle: saline with Tween-80): 96 % of control | T/C (dose: 5.0 mg/kg/injection, schedule: Q01DX001 (ip), vehicle: acetone): 95 % of control

O=C1c2cccc3cccc(c23)C(=O)N1CCCCCCCCCCN1C(=O)c2cccc3cccc(c23)C1=O
T/C (dose: 50.0 mg/kg/injection, schedule: Q01DX009 (ip), vehicle: gum acacia): 93 % of control | T/C (dose: 100.0 mg/kg/injection, schedule: Q01DX009 (ip), vehicle: gum acacia): 94 % of control and 89 % of control | T/C (dose: 100.0 mg/kg/injection, schedule: Q04DX003 (ip), vehicle: gum acacia): 93 % of control | T/C (dose: 200.0 mg/kg/injection, schedule: Q04DX003 (ip), vehicle: gum acacia): 86 % of control | T/C (dose: 400.0 mg/kg/injection, schedule: Q01DX009 (ip), vehicle: gum acacia): 89 % of control | T/C (dose: 400.0 mg/kg/injection, schedule: Q04DX003 (ip), vehicle: gum acacia): 90 % of control

CC(=O)OC1CCC2(C)C3CCC4(C)C(CCC45OC5(C)OC(C)=O)C3CC3OC32C1 (stereo not drawn)
T/C (dose: 50.0 mg/kg/injection, schedule: Q01DX001 (sc), vehicle: steriod suspending solution): 111 % of control | T/C (dose: 100.0 mg/kg/injection, schedule: Q01DX001 (sc), vehicle: steriod suspending solution): 98 % of control | T/C (dose: 200.0 mg/kg/injection, schedule: Q01DX001 (sc), vehicle: steriod suspending solution): 106 % of control | T/C (dose: 400.0 mg/kg/injection, schedule: Q01DX001 (sc), vehicle: steriod suspending solution): 101 % of control

CC[n+]1ccc(Nc2ccc(NC(=O)c3ccc(Nc4cc[n+](CC)c5ccc([N+](=O)[O-])cc45)cc3)cc2)cc1
T/C (dose: 4.13 mg/kg/injection, schedule: Q04DX003 (ip), vehicle: saline sonified): 114 % of control | T/C (dose: 4.5 mg/kg/injection, schedule: Q01DX009 (ip), vehicle: Klucel (hydroxypropylcellulose) (HPC)): 117 % of control | T/C (dose: 6.25 mg/kg/injection, schedule: Q04DX003 (ip), vehicle: Klucel (hydroxypropylcellulose) (HPC)): 108 % of control | T/C (dose: 6.25 mg/kg/injection, schedule: Q04DX003 (ip), vehicle: saline sonified): 117 % of control | T/C (dose: 9.38 mg/kg/injection, schedule: Q04DX003 (ip), vehicle: saline sonified): 115 % of control | T/C (dose: 10.44 mg/kg/injection, schedule: Q01DX009 (ip), vehicle: saline with Tween-80): 117 % of control | T/C (dose: 11.0 mg/kg/injection, schedule: Q01DX009 (ip), vehicle: saline): 115 % of control | T/C (dose: 12.5 mg/kg/injection, schedule: Q01DX001 (ip), vehicle: Klucel (hydroxypropylcellulose) (HPC)): 100 % of control | T/C [1]: 112 % of control | T/C (dose: 16.5 mg/kg/injection, schedule: Q01DX009 (ip), vehicle: Klucel (hydroxypropylcellulose) (HPC)): 175 % of control | T/C (dose: 25.0 mg/kg/injection, schedule: Q01DX001 (ip), vehicle: Klucel (hydroxypropylcellulose) (HPC)): 102 % of control | T/C (dose: 25.0 mg/kg/injection, schedule: Q01DX009 (ip), vehicle: Klucel (hydroxypropylcellulose) (HPC)): 160 % of control | T/C (dose: 25.0 mg/kg/injection, schedule: Q01DX009 (ip), vehicle: saline sonified): 230 % of control | T/C (dose: 25.0 mg/kg/injection, schedule: Q01DX009 (ip), vehicle: saline): 160 % of control | T/C [2]: 122 % of control | T/C (dose: 37.5 mg/kg/injection, schedule: Q01DX009 (ip), vehicle: saline): 184 % of control

Cc1cccc(N=C2C(=O)NC(=O)NC2=O)c1
T/C (dose: 100.0 mg/kg/injection, schedule: Q01DX Z (ip), vehicle: methylcellulose (MC)): 103 % of control | T/C (dose: 200.0 mg/kg/injection, schedule: Q01DX Z (ip), vehicle: methylcellulose (MC)): 106 % of control

Cc1ccc2ccc3ccc(C)nc3c2n1
T/C [1]: 99 % of control | T/C [2]: 97 % of control | T/C (dose: 50.0 mg/kg/injection, schedule: Q04DX003 (ip), vehicle: Klucel (hydroxypropylcellulose) (HPC)): 101 % of control
